# In patent US20070015827A1, “Methods and compositions for treating ophthalmic conditions via serum retinol, serum retinol binding protein (RBP), and/or serum retinol-RBP modulation” (Sytera, Inc., priority 2005, published 2007):
# “Also recorded” adds a separate entry of the source.
# How the values were obtained:
# Apo-RBP = Apo-RBP (Homo sapiens, UniProt P02753); assay: Fluorescence quenching study with Apo-RBP (Example 15); format: binding
# Method: Apo-RBP at 0.5 μM was incubated with 0, 0.25, 0.5, 1 and 2 μM of MPR in PBS at room temperature for 1 hour, respectively. As controls, the same concentration of Apo-RBP was also incubated with 1 μM of HPR or 1 μM of atROL. All mixtures contained 0.2% Ethanol (v/v). The emission spectra were measured between 290 nm to 550 nm with excitation wavelength at 280 nm and 3 nm bandpass.
# TTR binding to RBP = TTR binding to RBP (Homo sapiens, UniProt P02753); assay: Size exclusion study of TTR binding to RBP (Example 16); details: for binding of ligand-RBP to TTR: 10 μM RBP, 10 μM TTR, room temperature, 1 hour
# Method: Apo-RBP at 10 μM was incubated with 50 μM of MPR in PBS at room temperature for 1 hour. 10 μM of TTR was then added to the solution, and the mixture was incubated for another hour at room temperature. 50 μl of the sample mixtures with and without TTR addition were analyzed by BioRad Bio-Sil SEC125 Gel Filtration Column (300×7.8 mm). In control experiments, atROL-RBP and atROL-RBP-TTR mixture were analyzed in the same manner.
# abca4 null mutant mice = assay: A2E and A2PE-H2 in eyes after chronic treatment (HPLC); format: in vivo, mouse; details: 13-cis retinoic acid 40 mg/kg, chronic (1 month)
# Method: Tissue Extraction. Eye samples were thawed on ice in 1 ml of PBS, pH 7.2 and homogenized by hand using a Duall glass-glass homogenizer. The sample was further homogenized following the addition of 1 ml chlorofomm/methanol (2:1, v/v). The sample was transferred to a boroscilicate tube and lipids were extracted into 4 mls of chloroform. The organic extract was washed with 3 mls PBS, pH 7.2 and the samples were then centrifuged at 3,000×g, 10 min. The choloroform phase was decanted and the aqueous phase was re-extracted with another 4 mls of chloroform. Following centrifugation, the chloroform phases were combined and the samples were taken to dryness under nitrogen gas. Samples residues were resuspended in 100 μl hexane and analyzed by HPLC as described below.
# HPLC Analysis. Chromatographic separations were achieved on an Agilent Zorbax Rx-Sil Column (5 μm, 4.6×250 mm) using an Agilent 1100 series liquid chromatograph equipped with fluorescence and diode array detectors. The mobile phase (hexane/2-propanol/ethanol/25 mM KH2PO4, pH 7.0/acetic acid; 485/376/100/50/0.275, v/v) was delivered at 1 ml/min. Sample peak identification was made by comparison to retention time and absorbance spectra of authentic standards. Data are reported as peak fluorescence (L.U.) obtained from the fluorescence detector.
# We initiated a one-month study to evaluate the effects of HPR on reduction of A2E and A2E precursors in abca4 null mutant mice. HPR was administered in DMSO (20 mg/kg, ip) to abca4 null mutant mice (BL6/129, aged 2 months) daily for a period of 28 days. Control age/strain matched mice received only the DMSO vehicle. Mice were sampled at 0, 14, and 28 days (n=3 per group), the eyes were enucleated and chloroform-soluble constituents (lipids, retinoids and lipid-retinoid conjugates) were extracted. Mice were sacrificed by cervical dislocation, the eyes were enucleated and individually snap frozen in cryo vials. The sample extracts were then analyzed by HPLC with on-line fluorescence detection. Results from this study show remarkable, early reductions in the A2E precursor, A2PE-H2, see FIG. 4a, and subsequent reductions in A2E, see FIG. 4b. […] A similar study may be undertaken to ascertain effects of HPR treatment on the electroretinographic and morphological phenotypes.
# ABCA4 null mutant mice were given the indicated dose of HPR in DMSO or DMSO alone daily for 28 days (n=16 mice per treatment group). At study onset, mice in the 2.5 mg/kg group were 2 months of age, mice in the other treatment groups were 3 months of age. At the indicated times, representative mice were taken from each group (n =4) for analysis of A2E precursor compounds (see FIG. 10, A2PE-H2, panels A, C and E) and A2E (see FIG. 10, panels B, D and F). Eyes were enucleated, hemisected and lipid soluble components were extracted from the posterior pole by chloroform/methanol-water phase partitioning. Sample extracts were analyzed by LC. Identity of the eluted compounds was confirmed by UV-vis absorption spectroscopy and co-elution of sample peaks with authentic standards. Note: limitations in appropriately age and strain-matched mice in the 10 mg/kg group prevented analysis at the 14-day interval.
# Extraction and Analysis of Retinoids and A2E. Steady-state levels of retinoids and A2E in eyecups of ABCA4−/− mice were determined following daily administration (28 days) of HPR (FIG. 12). Mice were sacrificed, the eyes enucleated, and the posterior portion of each eye was used for extraction of retinoids or A2E. Methodologies used for extraction of retinoids and A2E from eye tissue and HPLC analysis techniques have been described. See, e.g., Mata N L, Weng J, Travis G H. Biosynthesis of a major lipofuscin fluorophore in mice and humans with ABCR-mediated retinal and macular degeneration. Proc Natl Acad Sci USA. 2000; 97:7154-7159; Weng J, et al.; Cell. 1999;98:13-23; Mata N L, et al.; Invest. Ophthalmol. Visual Sci. 2001; 42:1685-1690. […]
# [1] = tested on: wild-type and abca4 −/− mice; details: mouse, in vivo
# Description: Delayed-dark adaptation can be further exacerbated by compounds which reduce the rate of rhodopsin regeneration (e.g., 13-cis retinoic acid). Although compounds such as HPR, which reduce total ocular retinoid levels, may also contribute to delayed-dark adaptation, the effect is less pronounced. This point was illustrated in studies which examined the effects of chronic (1 month) 13-cis retinoic acid or HPR administration on electrophysiology of the retina. […] Following exposure to a light source which bleaches approximately 40% of the visual chromophore, wild-type mice require ˜1 hour to regain dark sensitivity (1.0 value on the y-axis); untreated abca4 −/− mice require ˜3-4 hours. 13-cis retinoic acid treatment prolongs the time required to regain dark sensitivity to several hours. […] This finding is relevant for human patients affected with AMD.
# Panels D-F of FIG. 9 are electrophysiological measurements of rod function (panel D), rod and cone function (panel E) and recovery from photobleaching (panel F).
# abca4 −/− mice = assay: A2E levels after withdrawal of chronic treatment; format: in vivo, mouse
# Method: Latent Effects of HPR on Arresting A2E Accumulation —One feature identified during the HPR trials was a therapeutic latency effect following withdrawal of HPR. In these studies, chronic treatment of abca4 −/− mice (10 mg HPR/kg, i.p.) was stopped after 28 days. A2E levels were then measured 12, 28 and 42 days following the final HPR dose. […] This effect was not observed in animals treated with 13-cis retinoic acid, a result that may be due to the capacity of RPE cells to adapt to, and maintain, low steady-state retinoid levels. […] These findings indicate that high steady-state levels of competitive inhibitors such as 13-cis retinoic acid must be maintained for therapeutic efficacy.
# mice = details: cited from earlier work
binding to RBP relative to HPR (Apo-RBP),"quenching of RBP fluorescence (Apo-RBP; 0.5 μM Apo-RBP, 0-2 μM MPR, PBS, room temperature, 1 hour)","degree of quenching compared with other RBP ligands (Apo-RBP; controls 1 μM HPR, 1 μM atROL)",MPR concentration at which quenching saturated (Apo-RBP; for 0.5 μM of RBP),"binding to RBP (360 nm absorbance in RBP elution peak) (TTR binding to RBP; 10 μM Apo-RBP, 50 μM MPR)",SMILES,binding of ligand-RBP to TTR (TTR binding to RBP),reduction in A2E (abca4 null mutant mice),time required to regain dark sensitivity [1],"A2E levels after withdrawal (therapeutic latency effect) (abca4 −/− mice; chronic treatment (HPR 10 mg/kg i.p.) stopped after 28 days, measured 12, 28 and 42 days later)","photoreceptor function and ocular retinoid levels following withdrawal (abca4 −/− mice; mouse, in vivo)",11-cis retinyl esters (mice; increased 13-cis retinoic acid),levels of 11-cis retinal (mice; increased doses of 13-cis retinoic acid)
more weakly,concentration-dependent quenching,smaller than those by atROL and HPR,1 µM,RBP binds to MPR,"COc1ccc(NC(=O)\C=C(C)/C=C/C=C(C)\C=C\C2=C(C)CCCC2(C)C)cc1 (stereo in doubt) [MPR, N-(4-methoxyphenyl)retinamide]",did not bind to TTR; also recorded: inhibits the binding of TTR to RBP,,,,,,
,,,,,CC1=C(/C=C/C(C)=C/C=C/C(C)=C\C(=O)O)C(C)(C)CCC1 [13-cis retinoic acid],,~50%,several hours,not observed,quickly returned to baseline values,increased dramatically,significantly reduced
,,,,,"CC1=C(/C=C/C(C)=C/C=C/C(C)=C/CO)C(C)(C)CCC1 [atROL, all-trans retinol]",binds to TTR,,,,,,
